For assay [1], the system named is OVA-specific IgE. Nature of the assay: OVA-specific IgE levels in serum by ELISA. The format is in vivo, mouse. On the procedure:
(§1) After testing the compound for the preventive as well as for therapeutic effects in intact conscious mice, mice were sacrificed for collecting the blood and bronchoalveolar lavage (BAL) fluid to measure the levels of IgE, cytokines IL-4, IL-5 and IFN-γ. Ovalbumin specific IgE levels in the sera and the levels of IL-4, IL-5 and IFN-γ in the BAL fluid were measured by enzyme linked ImmunoSorbent assay (ELISA) kits.
(§2) Mice were immunized/sensitized with or without (sham-sensitized) 0.2 ml of 10 μg ovalbumin (Sigma Chemicals Co. St Louis, Mo., USA) and 2 mg aluminum hydroxide intraperitoneally on days 0,7 and 14 using a modified protocol previously described by Sakai et al (FIG. 2). Five days after the final i.p injection, the mice were subjected to aerosolized OVA (5%) or phosphate buffered saline (PBS) (for sham-sensitized group) inhalation for 20 minutes daily beginning from day 19 to day 23 (FIG. 2). Mice were placed in a plexiglas chamber (20×20×20 cm dimensions) and exposed to an aerosol generated from a nebulizer (de Vilbiss, USA) with airflow of 41/min.
(§3) To study the preventive effect, Luteolin (dissolved in 50% hydro-alcohol) (Sigma Chemicals Co. St Louis, Mo., USA) (0.1, 1.0, and 10.0 mg/kg body weight, 20 □| volume) or vehicle (i.e., 50% hydro-alcohol) was administered orally to each group of mice daily, starting from the first day of sensitization (FIG. 2A). To study the curative effect, mice were first sensitized as described before (Example 1) followed by oral Luteolin (1.0 mg/kg body weight) treatment daily from day 26 to 32 (FIG. 2B).
OVA-specific IgE levels in the serum were measured by enzyme linked ImmunoSorbent assay (ELISA), To investigate the effect of Luteolin on serum IgE levels, we compared the levels of the OVA-specific IgE in serum of mice treated with vehicle or with Luteolin (0.1, 1.0 and 10.0 mg/kg) during sensitization and in sham-sensitized mice.
(ELISA stands for enzyme-linked immunosorbent assay.)

Assay [2] has as its system IL-4. In words: IL-4 level in BALF by ELISA. The format is in vivo, mouse. The settings on record: mean±SEM, n=6. On the procedure: as §1
(§4) Experiments were performed with six groups of mice (n=6) as described in FIG. 3 legend and the levels of IFN-γ, IL-4 and IL-5 were measured in the BALF. The values are a mean±SEM of six mice in each group. Mann Whitney U test was used to determine the significant differences between the sensitized- and Luteolin treated groups. * p <0.05, ** p<0.01. ‘a’ denotes treatment during sensitization; ‘b’ denotes treatment after sensitization.
as §2, §3
(§5) To investigate the levels of IL-4 and IFN-[…] in the BALF, we measured the cytokine levels by ELISA as per manufacturer's protocol, and compared between the different groups. […] In the Luteolin-treated group, there was an increase in the ratio of IFN-γ/IL-4 (25.8±2.7, 15.5±1.3, 13.2±2.5 following doses of 0.1, 1.0 and 10.0 mg/kg Luteolin, respectively as compared to 0.48±0.1 in sensitized, vehicle treated mice) (p<0.01) (Table 1). […] This increase in the IFN-γ/IL-4 ratio was due to the increase in the IFN-γ levels. We also measured the concentration of IL-5 in the BALF by ELISA in the different groups (Table 1). […]

Assay [3] has as its system OVA-sensitized mice. In words: OVA-induced airway constriction (fall of specific airway conductance, SGaw) in mouse model of asthma. It is filed as in vivo. The method, then: Protocol A: The mice were given three i.p. Injections of 10 μg ovalbumin adsorbed on 2 mg alum on 0, 7 and 14 days and then subjected to OVA aerosol inhalation for five consecutive days from 19th to 23rd day of the experiment. On 24th day SGaw measurements were performed after OVA challenge in the plethysmograph and airway reactivity to methacholine was measured after 24 hours. In case of curative study (Protocol B), sensitized mice were fed with 1 mg/kg body weight of Luteolin for one week (days 26-32) and the effects on SGaw and airway reactivity were evaluated. Mice were immunized/sensitized with or without (sham-sensitized) 0.2 ml of 10 μg ovalbumin (Sigma Chemicals Co. St Louis, Mo., USA) and 2 mg aluminum hydroxide intraperitoneally on days 0,7 and 14 using a modified protocol previously described by Sakai et al (FIG. 2). Five days after the final i.p injection, the mice were subjected to aerosolized OVA (5%) or phosphate buffered saline (PBS) (for sham-sensitized group) inhalation for 20 minutes daily beginning from day 19 to day 23 (FIG. 2). Mice were placed in a plexiglas chamber (20×20×20 cm dimensions) and exposed to an aerosol generated from a nebulizer (de Vilbiss, USA) with airflow of 41/min. To study the preventive effect, Luteolin (dissolved in 50% hydro-alcohol) (Sigma Chemicals Co. St Louis, Mo., USA) (0.1, 1.0, and 10.0 mg/kg body weight, 20 □| volume) or vehicle (i.e., 50% hydro-alcohol) was administered orally to each group of mice daily, starting from the first day of sensitization (FIG. 2A). […] Airway calibre was measured in the term of specific airway conductance (SGaw) using a dual-chamber whole body plethysmograph similar to the method for guinea pigs (Agrawal, 1981) with some modifications. […] The value of SGaw was calculated as described by Agrawal (1981). Airway constriction of mice was determined in terms of fall of SGaw due to OVA aerosol challenge. SGaw was measured as described in Example 3. […]

Assay [4] has as its system OVA-sensitized mice. In words: Mouse model of asthma, effective oral dose. It is filed as in vivo. On the procedure: In this context, Luteolin was tested on mouse model of asthma. Mice were sensitized with intraperitoneal and aerosol inhalation of OVA to develop the characteristic features of asthma such as allergen induced early airway response (EAR) and late airway response (LAR). These asthmatic features were characterized by measuring airway calibre in the term of specific airway conductance (SGaw) by a non-invasive technique, dual-chamber whole body plethysmography. After developing the characteristic features (EAR and LAR) in mouse, the compound, Luteolin was given orally during whole sensitization period to test the preventive effect on the development of asthmatic features. To examine the therapeutic effect of Luteolin on the asthmatic features, it was fed for one week to mice after sensitization and confirming their asthmatic features.
as §3

Assay [5] deals with IL-5. Nature of the assay: IL-5 level in BALF by ELISA. The format is in vivo, mouse. The settings on record: mean±SEM. On the procedure: as §1, §4, §2, §3, §5
For assay [6], the system named is OVA-sensitized mice. Nature of the assay: Airway reactivity to methacholine (MCh PD35) in mouse model of asthma. The format is in vivo. On the procedure:
Protocol A: The mice were given three i.p. Injections of 10 μg ovalbumin adsorbed on 2 mg alum on 0, 7 and 14 days and then subjected to OVA aerosol inhalation for five consecutive days from 19th to 23rd day of the experiment. On 24th day SGaw measurements were performed after OVA challenge in the plethysmograph and airway reactivity to methacholine was measured after 24 hours. In case of curative study (Protocol B), sensitized mice were fed with 1 mg/kg body weight of Luteolin for one week (days 26-32) and the effects on SGaw and airway reactivity were evaluated.
as §2, §3
Airway reactivity to methacholine was determined by measuring the concentration of inhaled methacholine that produced 35% fall in SGaw (MCh PD35) in intact mouse sitting in the body plethysmograph. Aerosol of different concentrations of methacholine (3.1, 6.25, 12.5, 50, 100 mg/ml) were given for 60 seconds. MCh PD35 values were determined in sham-sensitized, sensitized and Luteolin treated mice during and after sensitization. […] Treatment with Luteolin (0.1, 1.0 and 10.0 mg/kg during sensitization) markedly attenuated the development of airway hyperreactivity to methacholine. MCh PD35 values increased following Luteolin treatment to 72.1±1.9, 42.4±4.2 and 10.9±4.8 mg/ml, respectively (p<0.01).

For assay [7], the system named is IFN-γ. Nature of the assay: IFN-γ level in BALF by ELISA. It is filed as in vivo, mouse. The settings on record: mean±SEM, n=6. On the procedure:
as §1, §4, §2, §3, §5

Setting [8] is: 1.0 mg/kg oral during sensitization.
The mark [9] stands for this setting: 10.0 mg/kg oral during sensitization.
The mark [10] stands for this setting: 10.0 mg/kg during sensitization.
The mark [11] stands for this setting: 1.0 mg/kg oral for one week after sensitization.

Values joined by “and” are separate entries in the source; they are usually repeats but may differ in a detail not shown here. Equal entries are not always repeated. Marks after values point to notes of the source that are not given here.

Take `O=c1cc(-c2ccc(O)c(O)c2)oc2cc(O)cc(O)c12` [Luteolin]: the “OVA-specific serum IgE level” value in assay [1] (0.1 mg/kg oral during sensitization, sensitized vehicle 3.3±0.4) came out at 0.74±0.4; in assay [1] (setting [8]), 0.93±0.03; in assay [1] (1.0 mg/kg oral for a week after sensitization), 2.07±1; in assay [1] (setting [9]) it was 0.97±0.07. Besides, the IL-4 was determined as 136 ± 4.0 pg/mL in assay [2] (0.1 mg/kg during sensitization), 130 ± 5.0 pg/mL in assay [2] (1.0 mg/kg after sensitization), 169 ± 13.9 pg/mL in assay [2] (1.0 mg/kg during sensitization) and 128 ± 8.8 pg/mL in assay [2] (setting [10]). Besides, the “decrease in SGaw after OVA challenge” value in assay [3] (0.1 mg/kg oral daily during sensitization, sensitized vehicle mice 43% fall) was determined as 7%. Besides, the “OVA-induced decrease in SGaw, curative effect” value in assay [3] (setting [11]) was “reverse OVA-induced decrease in SGaw”. The “reduction of OVA-induced decrease in SGaw at higher doses” value in assay [3] (1.0 and 10.0 mg/kg oral daily during sensitization, versus 0.1 mg/kg) is given as “did not show any greater reduction”. For the same molecule, the effective dose in assay [4] was found to be 1 mg/kg body weight. Besides, the IL-5 in assay [5] (0.1 mg/kg during sensitization, n=6, 0.1 mg/kg) was 73.3±13.4 pg/ml and 73 ± 13.4* pg/ml; in assay [5] (1.0 mg/kg after sensitization (one week), n=6, 1 mg/kg), 43.7±2.3 pg/ml and 44 ± 2.3* pg/ml; in assay [5] (1.0 mg/kg during sensitization, n=6, 1 mg/kg) it was 43.3±3.5 pg/ml and 43 ± 3.5* pg/ml; in assay [5] (10.0 mg/kg during sensitization, n=6) it was 235 ± 66.4 pg/mL. The “MCh PD35” value is 72.1 ± 1.9 mg/mL in assay [6] (0.1 mg/kg oral during sensitization, sensitized 1.3±0.5, normal 97±1.0); 42.4 ± 4.2 mg/mL in assay [6] (setting [8]); “increased significantly” in assay [6] (setting [11]); 10.9 ± 4.8 mg/mL in assay [6] (setting [9]). For the same molecule, the IFN-γ in assay [7] (0.1 mg/kg during sensitization) is 3533 ± 427** pg/ml; in assay [7] (1.0 mg/kg after sensitization) it was 2067 ± 233.3** pg/ml; in assay [7] (1.0 mg/kg during sensitization), 2652 ± 114.3** pg/ml; in assay [7] (setting [10]) it was 1247 ± 412.5** pg/ml.

The values are drawn from patent US20040191327A1, “Method of treating and/or preventing asthma using natural compound luteolin” (Council of Scientific and Industrial Research, priority 2003, published 2004).
